Results from publication PMC6273328, “Simultaneous Determination of Purpurin, Munjistin and Mollugin in Rat Plasma by Ultra High Performance Liquid Chromatography-Tandem Mass Spectrometry: Application to a Pharmacokinetic Study after Oral Administration of Rubia cordifolia L. Extract” (Molecules, 2016).
Where two headings read alike, the source gives them in different places.

Experiments:
[1] = Pharmacokinetic study in rats after oral administration of R. cordifolia extract (UHPLC-MS/MS of plasma); assay type: in vivo, Sprague-Dawley (SD) rats; details: male, Sprague-Dawley
Description: The UHPLC-MS/MS method described herein was applied to investigate the pharmacokinetics of the three constituents in R. cordifolia after a single oral administration of 0.82 g/kg of extract (equivalent to 6.3 μg/g for mollugin, 1.3 μg/g for munjistin, and 0.68 μg/g for purpurin) to twelve rats. We determined the oral dosage for the rats corresponding to the human dosage recommended in the Chinese Pharmacopoeia (2015 edition). The human dosage of R. cordifolia in the Chinese Pharmacopoeia is 10 g/day, so we calculated the final oral dosage as 0.82 g/kg in rats based on the Meeh-Rubn method.
Twelve male Sprague-Dawley (SD) rats (body weight 220 ± 20 g) were obtained from the experimental animal center of Harbin Medical University and adapted to a constant-temperature (25 °C) room. The animal handling procedures were approved by the institutional ethics committee and conformed to the principles of the International Guide for the Care and Use of Laboratory Animals. Before the experiment, the rats were fasted for 12 h and had access to water during the research period. Blood (0.4 mL) was collected from the orbital venous plexus at several specific time points (0, 0.33, 0.67, 1, 1.3, 1.67, 2, 2.5, 3, 4, 6, 8, 12 and 24 h) after the oral administration of R. cordifolia (0.82 g/kg). After centrifugation at 12000 rpm for 5 min, the plasma was collected immediately and stored at −20 °C until sample analysis.
Before the experiment, the plasma samples were thawed naturally at room temperature. As a liquid-liquid extraction method, 100 μL of methanol and 50 μL of I.S. (2000 ng/mL) were added to a rat plasma sample (100 μL), and then the content was mixed by a vortex mixer for 30 s. After this step, a 3 mL aliquot of ethyl acetate (extraction agent) was accurately added and the mixture vortexed for 60 s. Then the samples were put into a centrifuge. The organic supernatant was pipetted into clean glass tubes individually after centrifugation 4000 rpm for 5 min. The upper organic layer was removed and evaporated to dryness at 40 °C under a stream of nitrogen. The residue was then reconstituted with 100 μL of mobile phase (5 mM ammonium acetate in water/methanol, 10:90, v/v), vortexed for 30 s and filtered by a 0.22 μm membrane. A 5 μL aliquot of the solution was injected into the UHPLC-MS/MS system for analysis.
Noncompartmental methods were applied to calculate the following pharmacokinetic parameters. The peak plasma concentration (Cmax) and the time of maximum plasma concentration (Tmax) were observed directly from the measured data. The elimination rate constant (Ke) was calculated using the linear regression of the terminal points in a semi-log plot of the plasma concentration against time. The elimination half-life (t1/2) was calculated using the formula: t1/2 = 0.693/Ke
The area under the peak plasma concentration-time curve (AUC0→t) to the last measurable plasma concentration (Ct) was estimated using the linear trapezoidal rule. The area under the plasma concentration-time curve to time infinity (AUC0→∞) was calculated as following: AUC0→∞ = AUC0-t + Ct/Ke

[2] = Stability of the analytes in rat plasma (QC samples); assay type: in vitro ADME; details: n = 6; for Stability (% RE) Post-Preparative: extracted plasma samples, 12 h at 4 °C after preparation; for Stability (% RE) Short-Term / Stability (% RE) Long-Term / Stability (% RE) Three Freeze-Thaw: rat plasma; for Stability (% RE) Short-Term: 4 h at ambient temperature; for Stability (% RE) Long-Term: storage for 2 weeks at −20 °C; for Stability (% RE) Three Freeze-Thaw: three freeze (−20 °C) and thaw cycles
Description: To study the stability, QC samples of the three analytes at three QC levels (LQC, MQC, and HQC) were added into drug-free plasma samples and each levels contained six replicates. Four different manipulations were designed to assess the stability involving short-term stability (storage for 4 h at ambient temperature), long-term stability (storage for 2 weeks at −20 °C), freeze-thaw stability (three freeze at −20 °C and thaw cycles), and post-preparative stability (storage for 12 h after sample preparation at 4 °C). A series of concentrations of stability testing QC samples was obtained by the calibration curve which was established from freshly prepared standard samples.

[3] = medium QC (26.4/51.5/245 ng/mL)
[4] = high QC (211/412/1960 ng/mL purpurin/munjistin/mollugin)
[5] = low QC (0.528/1.03/4.90 ng/mL purpurin/munjistin/mollugin)
[6] = medium QC (26.4/51.5/245 ng/mL purpurin/munjistin/mollugin)

Row | SMILES | Stability (% RE) Post-Preparative ([2]; high QC (211/412/1960 ng/mL)) [% RE] | Stability (% RE) Post-Preparative ([2]; low QC (0.528/1.03/4.90 ng/mL)) [% RE] | Stability (% RE) Post-Preparative [2, 3] [% RE] | Stability (% RE) Short-Term ([2]; high QC (211/412/1960 ng/mL)) [% RE] | Stability (% RE) Short-Term ([2]; low QC (0.528/1.03/4.90 ng/mL)) [% RE] | Stability (% RE) Short-Term [2, 3] [% RE] | Stability (% RE) Long-Term ([2]; high QC (211/412/1960 ng/mL)) [% RE] | Stability (% RE) Long-Term ([2]; low QC (0.528/1.03/4.90 ng/mL)) [% RE] | Stability (% RE) Long-Term [2, 3] [% RE] | Stability (% RE) Three Freeze-Thaw [2, 4] [% RE] | Stability (% RE) Three Freeze-Thaw [2, 5] [% RE] | Stability (% RE) Three Freeze-Thaw [2, 6] [% RE] | AUC(0-inf) ([1]; rat, in vivo, po, 0.82 g/kg) [ng·h/mL] | AUC(0-t) ([1]; rat, in vivo, po, 0.82 g/kg) [ng·h/mL] | Cmax ([1]; rat, in vivo, po, 0.82 g/kg) [ng/mL] | Tmax ([1]; rat, in vivo, po, 0.82 g/kg) [h] | half-life ([1]; rat, in vivo, po, 0.82 g/kg) [h] | other results
1 | COC(=O)c1c2c(c3ccccc3c1O)OC(C)(C)C=C2 [Mollugin, mollugin] | 14.38 | 11.15 | 0.65 | −8.69 | 9.90 | −4.35 | −8.55 | 4.57 | −0.17 | −13.17 | 10.26 | 8.78 |  |  |  |  |  | half-life ([1]; rat plasma, single oral 0.82 g/kg R. cordifolia extract, mean ± SD, n = 12, non-compartment model, read-out: t1/2 (converted)): 9.02 ± 2.14 h; AUC(0-t) ([1]; rat plasma, single oral 0.82 g/kg R. cordifolia extract, mean ± SD, n = 12, read-out: AUC0→t): 232 ± 57.6 ng·h/mL; AUC(0-inf) ([1]; rat plasma, single oral 0.82 g/kg R. cordifolia extract, mean ± SD, n = 12, read-out: AUC0→∞): 296 ± 40.9 ng·h/mL; Cmax ([1]; rat plasma, single oral 0.82 g/kg R. cordifolia extract, mean ± SD, n = 12, read-out: Cmax): 52.1 ± 6.71 ng/mL; Tmax ([1]; rat plasma, single oral 0.82 g/kg R. cordifolia extract, mean ± SD, n = 12, read-out: Tmax): 1.99 ± 0.21 h
2 | O=C1c2ccccc2C(=O)c2c1cc(O)c(C(=O)O)c2O [Munjistin, munjistin] | −10.15 | 11.15 | 7.04 | 7.31 | 11.56 | 6.73 | −0.77 | 13.97 | 5.56 | −2.82 | 9.04 | 9.46 | 136 ± 21.2 | 110 ± 20.1 | 26.1 ± 6.59 | 2.58 ± 0.19 | 9.22 ± 2.75 | 
3 | O=C1c2ccccc2C(=O)c2c(O)c(O)cc(O)c21 [Purpurin, purpurin] | 13.68 | −14.02 | −2.00 | 14.76 | −13.38 | −5.35 | 12.08 | −2.59 | −2.68 | 14.76 | 1.92 | −5.35 | 243 ± 35.9 | 206 ± 36.1 | 70.1 ± 11.8 | 1.61 ± 0.24 | 9.52 ± 2.68 | 
